Assay results from PubChem BioAssay (NCI).
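How tested: cells in 96-well plates exposed to compound for 48 hours at five concentrations. At the GI50, growth is halved. TGI: total growth inhibition.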

Columns and labels:
Test in all cases: inhibition of tumour cell growth, NCI panel, 48 h
[1] = system: SK-OV-3 ovarian
[2] = system: OVCAR-3 ovarian
[3] = system: ACHN renal
[4] = system: SF-539 CNS
[5] = system: SK-MEL-28 melanoma
[6] = system: HCT-116 colon
[7] = system: SN12C renal
[8] = system: SF-268 CNS
[9] = system: K-562 leukemia
[10] = system: MCF7 breast

Compound: CNS(=O)(=O)NNS(=O)(=O)c1ccc(C)cc1
- TGI [1]: > 100 µM
- TGI [2]: > 100 µM
- TGI [3]: > 100 µM
- TGI [4]: > 100 µM
- TGI [5]: > 100 µM
- TGI [6]: > 100 µM
- TGI [7]: > 100 µM
- TGI [8]: > 100 µM
- TGI [9]: > 100 µM

Compound: COC1=CC(=O)C(O)=C(CC2(C)C(C)CCC3(C)C2CCCC3(C)C)C1=O (centres undefined)
- TGI [1]: > 100 µM
- TGI [2]: 26.5 µM
- TGI [3]: 29.5 µM
- TGI [4]: 9.49 µM
- TGI [5]: 18.2 µM
- TGI [6]: 21.3 µM
- TGI [7]: 15.3 µM
- TGI [8]: 25.4 µM
- TGI [9]: > 100 µM

Compound: C/C(=C\c1ccccc1)C(O)C(=O)c1nc2ccc(Cl)cc2[nH]c1=O (centres undefined)
- TGI [1]: > 100 µM
- TGI [2]: > 100 µM
- TGI [3]: > 100 µM
- TGI [4]: > 100 µM
- TGI [5]: > 100 µM
- TGI [6]: > 100 µM
- TGI [7]: > 100 µM
- TGI [8]: > 100 µM
- TGI [9]: > 100 µM

Compound: CCN1CCN(CC(=O)Nc2nc3ccc(NCc4ccc(Br)cc4)cc3s2)CC1
- GI50 [10]: 2.05 µM
- TGI [10]: 4.9 µM
- GI50 [3]: 2.03 µM
- TGI [3]: 4.4 µM
- GI50 [4]: 1.75 µM
- TGI [4]: 3.24 µM
- GI50 [5]: 1.92 µM
- TGI [5]: 3.76 µM
- GI50 [6]: 1.54 µM
- TGI [6]: 3.3 µM
- GI50 [7]: 2.73 µM
- TGI [7]: > 100 µM

Compound: CC1(C)CC(=O)C(C(=O)Nc2cccs2)=C(O)C1
- TGI [1]: > 100 µM
- TGI [2]: > 100 µM
- TGI [3]: > 100 µM
- TGI [4]: > 100 µM
- TGI [5]: > 100 µM
- TGI [6]: > 100 µM
- TGI [7]: > 100 µM
- TGI [8]: > 100 µM
- TGI [9]: > 100 µM

Compound: N#CC1=C(N)Oc2c(ccc3ccccc23)C1c1cc2ccccc2n2nnnc12 (centres undefined)
- GI50 [1]: 2.05 µM
- TGI [1]: > 100 µM
- GI50 [2]: 0.44 µM
- TGI [2]: 3.36 µM
- GI50 [10]: 0.471 µM
- TGI [10]: > 100 µM
- GI50 [3]: 1.71 µM
- TGI [3]: > 100 µM
- GI50 [5]: 4.04 µM
- TGI [5]: > 100 µM
- GI50 [6]: 0.685 µM
- TGI [6]: > 100 µM
- GI50 [7]: 0.99 µM
- TGI [7]: > 100 µM
- GI50 [8]: 3.23 µM
- TGI [8]: > 100 µM
- GI50 [9]: 0.365 µM
- TGI [9]: > 100 µM

Compound: CCCCCNC(=O)CCCCCCCCCCCNC(=O)CCCCCCCCCCN1C=CC(=CC=C2C=CC(=O)C=C2)C=C1
- TGI [1]: > 100 µM
- TGI [2]: > 100 µM
- TGI [3]: > 100 µM
- TGI [4]: > 100 µM
- TGI [5]: > 100 µM
- TGI [6]: > 100 µM
- TGI [7]: > 100 µM
- TGI [8]: > 100 µM
- TGI [9]: > 100 µM

Compound: COc1ccc2cc3n(c(=O)c2c1)CCc1c-3cc(OC)c(OC)c1OC
- TGI [1]: > 100 µM
- TGI [2]: > 100 µM
- TGI [3]: > 100 µM
- TGI [4]: > 100 µM
- TGI [5]: > 100 µM
- TGI [6]: > 100 µM
- TGI [7]: > 100 µM
- TGI [8]: > 100 µM
- TGI [9]: > 100 µM

Compound: COc1ccc(C(C)Nc2cc(OC)c(OC)c(OC)c2)cc1 (centres undefined)
- TGI [1]: > 62.5 µM
- TGI [2]: 6.99 µM
- TGI [3]: > 100 µM
- TGI [4]: 12.8 µM
- TGI [5]: > 100 µM
- TGI [6]: > 46.2 µM
- TGI [7]: > 100 µM
- TGI [8]: 9.59 µM
- TGI [9]: > 45 µM

Compound: O=C1NC(=O)N(S(=O)(=O)c2cc(C(=O)Nc3ccc(Cl)cc3)c(Cl)cc2S)S(=O)(=O)N1
- GI50 [2]: 19.2 µM
- TGI [2]: 36.1 µM
- GI50 [10]: 23.6 µM
- TGI [10]: 91.8 µM
- GI50 [3]: 21.6 µM
- TGI [3]: 43.7 µM
- GI50 [4]: 19.7 µM
- TGI [4]: 39.3 µM
- GI50 [5]: 14.6 µM
- TGI [5]: > 100 µM
- GI50 [6]: 19.4 µM
- TGI [6]: 35.4 µM
- GI50 [7]: 21.9 µM
- TGI [7]: 50.2 µM
- GI50 [8]: 16.9 µM
- TGI [8]: 46.6 µM
- GI50 [9]: 12.3 µM
- TGI [9]: 34.1 µM

Compound: O=C1Nc2ccc(Cl)cc2/C1=N/c1nc(-c2ccc(Cl)cc2)cs1
- GI50 [1]: 1.5 µM
- TGI [1]: 4.54 µM
- GI50 [2]: 1.3 µM
- TGI [2]: 4.56 µM
- GI50 [6]: 1.3 µM
- TGI [6]: 2.71 µM
- GI50 [8]: 1.29 µM
- TGI [8]: 4.41 µM
- GI50 [9]: 1.6 µM
- TGI [9]: > 100 µM

Compound: O=C1c2ccccc2C2(O)N(c3ccccc3)C(=S)N(c3ccccc3)C12O (centres undefined)
- TGI [1]: > 100 µM
- TGI [2]: > 100 µM
- TGI [3]: > 100 µM
- TGI [4]: > 100 µM
- TGI [5]: > 100 µM
- TGI [6]: > 100 µM
- TGI [7]: > 100 µM
- TGI [8]: > 100 µM
- TGI [9]: > 100 µM

Compound: CN(C)CCNC(=O)c1cccc2c1nc(-c1cccnc1)c1ccccc12
- TGI [1]: 31.2 µM
- TGI [2]: 42 µM
- TGI [3]: 14.4 µM
- TGI [4]: 10.7 µM
- TGI [5]: 23.6 µM
- TGI [6]: 13.8 µM
- TGI [7]: 35.4 µM
- TGI [8]: 22.2 µM
- TGI [9]: 65.4 µM

Compound: O=c1c2cc(Br)ccc2nc(CNc2ccccc2)n1-c1ccccc1
- TGI [1]: > 96.4 µM
- TGI [2]: 48.5 µM
- TGI [3]: > 49.9 µM
- TGI [4]: 32.7 µM
- TGI [5]: > 65.6 µM
- TGI [6]: 33.9 µM
- TGI [7]: 29 µM
- TGI [8]: > 54.7 µM
- TGI [9]: 58.1 µM

Compound: CN1S(=O)(=O)N(C)P12(N=P(CP(=NP13(N(C)S(=O)(=O)N1C)N(C)S(=O)(=O)N3C)(c1ccccc1)c1ccccc1)(c1ccccc1)c1ccccc1)N(C)S(=O)(=O)N2C
- TGI [1]: > 100 µM
- TGI [2]: > 100 µM
- TGI [3]: > 100 µM
- TGI [4]: > 100 µM
- TGI [5]: > 100 µM
- TGI [6]: > 100 µM
- TGI [7]: > 100 µM
- TGI [8]: > 100 µM
- TGI [9]: > 100 µM

Compound: CC(C)(C)C1CC[C@H]2c3c([nH]c4ccccc34)[C@H]3C(=O)N(c4ccc(F)cc4)C(=O)[C@H]3[C@H]2C1 (some centres undefined)
- TGI [1]: 32 µM
- TGI [2]: 31 µM
- TGI [3]: 27.2 µM
- TGI [4]: 35.9 µM
- TGI [5]: 46.5 µM
- TGI [6]: 25 µM
- TGI [7]: 23.6 µM
- TGI [8]: 30.8 µM
- TGI [9]: 42.5 µM

Compound: N#CC1(CCCCl)CCCCC1
- TGI [1]: > 100 µM
- TGI [2]: > 100 µM
- TGI [3]: > 100 µM
- TGI [4]: > 100 µM
- TGI [5]: > 100 µM
- TGI [6]: > 100 µM
- TGI [7]: > 100 µM
- TGI [8]: > 100 µM

Compound: CC(C)CCCC(C)C1CCC2C3CC([N+](=O)[O-])=C4CC(O)CCC4(C)C3CCC12C (centres undefined)
- TGI [2]: 49.4 µM
- TGI [3]: > 100 µM
- TGI [4]: 28.9 µM
- TGI [5]: 35.2 µM
- TGI [6]: 28.9 µM
- TGI [7]: 32.1 µM
- TGI [8]: 62.9 µM
- TGI [9]: 36.8 µM

Compound: O=S(=O)(O)C(c1ccccc1)C(O)c1ccccc1 (centres undefined)
- TGI [1]: > 100 µM
- TGI [2]: > 100 µM
- TGI [10]: > 100 µM
- TGI [3]: > 100 µM
- TGI [5]: > 100 µM
- TGI [6]: > 100 µM
- TGI [7]: > 100 µM
- TGI [8]: > 100 µM
- TGI [9]: > 100 µM

Compound: CCOC(=O)C1C(NC(N)=O)N(Cc2ccccc2)C(=O)N1Cc1ccccc1 (centres undefined)
- TGI [1]: > 100 µM
- TGI [2]: > 100 µM
- TGI [3]: > 100 µM
- TGI [4]: > 100 µM
- TGI [5]: > 100 µM
- TGI [6]: > 100 µM
- TGI [8]: > 100 µM
- TGI [9]: > 100 µM
